Data reported in patent publication US11542316B2, “S-Arrestin peptides and therapeutic uses thereof” (APITOPE INTERNATIONAL NV, priority 2017, dated 2023).
“Also recorded” adds a separate entry of the source. Ends that are not written are not given here.

What follows are substances tested against T1, MHC II molecules present on dendritic cells (DC) (Homo sapiens, UniProt P01903+P01911, A100K/A102G/A103R/F55Y/I96L/K41T/P40S/Q125H/Q178H/Q39Y/R42S/S66N/T106N/T262R/W38E/Y61H) (assay: In vivo presentation experiment, DR3tg mice). Details: 100 μg peptide s.c., CD11c+ cells harvested after 2 hours, co-culture 48 hours.
T1 construct: from tissue; host or cells: CD11c+ dendritic cells from spleens of DR3tg mice (genomic HLA-DRA and DRB1*0301 transgenes, no mouse MHC class II)
T1 sequence (P01903 26-254): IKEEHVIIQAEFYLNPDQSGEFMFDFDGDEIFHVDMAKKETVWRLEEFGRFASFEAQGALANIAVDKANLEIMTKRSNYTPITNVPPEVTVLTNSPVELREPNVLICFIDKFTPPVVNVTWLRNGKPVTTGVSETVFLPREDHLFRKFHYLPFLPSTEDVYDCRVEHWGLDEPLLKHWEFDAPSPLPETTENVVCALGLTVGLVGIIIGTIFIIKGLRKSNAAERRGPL
T1 sequence (P01911 30-266 with the stated changes): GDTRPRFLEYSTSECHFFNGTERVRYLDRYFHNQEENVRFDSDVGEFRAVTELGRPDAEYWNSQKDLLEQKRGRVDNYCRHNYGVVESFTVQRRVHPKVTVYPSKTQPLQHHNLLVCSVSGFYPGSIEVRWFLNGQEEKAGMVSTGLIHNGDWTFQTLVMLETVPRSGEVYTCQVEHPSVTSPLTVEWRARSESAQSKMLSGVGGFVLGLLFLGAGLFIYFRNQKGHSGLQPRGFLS
From the text: FIG. 14: In vivo presentation protocol. Mice are immunized with peptide/CFA and a T cell line is established. For this, ten days after immunization the LN and spleens are harvested and cultured with different concentrations of peptide; 2×10^6 cells/ml APC+1×10^6 cells/ml CD4^+ cells per well. At day 7 the cells are re-stimulated with fresh APC and the same concentrations of peptide. After 14 to 21 days, CD4^+ cells are isolated from these cultures by magnetic bead isolation. These CD4^+ cells are co-cultured with CD11c^+ (dendritic) cells isolated by magnetic bead isolation from spleens of mice s.c. injected with peptide 2 hours before. Control mice receive a s.c. injection of PBS. After 48 hours, supernatant is collected and cytokine response (IFN-γ) is measured. LN, lymph nodes; APC, Antigen presenting cell; s.c. subcutaneous.
FIG. 15: In vivo presentation of HIP-115 nested peptides in DR3 mice. DR3 mice were immunized with HIP-115/CFA and a T cell line was established. For this, ten days after immunization the LN and spleens were harvested and cultured with different concentrations of peptide (0.1-1-2.5 and 5 μg/ml); 2×10^6 cells/ml APC+1×10^6 cells/ml CD4^+ cells per well. At day 7 the cells were re-stimulated with fresh APC and the same concentrations of peptide. After 14 days, CD4^+ cells were isolated from these cultures by magnetic bead isolation. These CD4^+ cells were co-cultured with CD11c (dendritic) cells isolated by magnetic bead isolation from spleens of DR3 mice s.c. injected with peptides HIP-115NE3, HIP-115NE3-KKK or PBS 2 hours before. After 48 hours, supernatant was collected and IFN-γ production was measured by ELISA. Data are presented as the mean IFN-γ concentration±SEM (One-way ANOVA with Dunn's multiple comparison, * p<0.05, ** p<0.01). LN, lymph nodes; APC, Antigen presenting cell; s.c. subcutaneous.
FIG. 16: In vivo presentation of HIP-24 nested peptides in DR3 mice. DR3 mice were immunized with HIP-241125+HIP-24DG/CFA and a T cell line was established. For this, ten days after immunization the LN and spleens were harvested and cultured with different concentrations of peptide (0.3-1.2-3 and 6 μg/ml); 2×10^6 cells/ml APC+1×10^6 cells/ml CD4^+ cells per well. At day 7 the cells were re-stimulated with fresh APC and the same concentrations of peptide. After 14 days, CD4^+ cells were isolated from these cultures by magnetic bead isolation. […] After 48 hours, supernatant was collected and IFN-γ production was measured by ELISA. […]
FIG. 18: In vivo presentation of HIP-17GN nested peptides in DR3 mice. […] After 48 hours, supernatant was collected and IFN-γ production was measured by ELISA. […]

Substance | picked up and presented by MHC II on dendritic cells to peptide-specific T cells (IFN-γ production)
KKKLTFRRDLYFSRVQVYKKK-NH2 [HIP-17J-KKK] | presented by DC to T cells; also recorded: A certain degree of activation
KKKVIFKKISRDKSVTIYLGKKK-NH2 [HIP-115NE3-KKK] | bound to the MHC II on DC in situ and presented to peptide-specific T cells
LPLLANNRERRGIA-NH2 [HIP-24HM3, LPLLANNRERRGIA] | presented by DC to T cells
VIFKKISRDKSVTIYLG-NH2 [HIP-115NE3, VIFKKISRDKSVTIYLG] | not able to cause this activation
